The record followed here is ChEMBL document CHEMBL1136175, “Synthesis and antimycobacterial activity of capuramycin analogues. Part 2: acylated derivatives of capuramycin-related compounds” (Bioorg Med Chem Lett, 2003).

A word on the IC50: it is the point on the concentration scale where inhibition reaches its midpoint. For orientation: MIC means the smallest concentration in the dilution series that meets the test's criterion for growth inhibition. High values mean a need for much substance, low ones inhibition by little substance.

The target of experiment [1] is T1, Phospho-N-acetylmuramoyl-pentapeptide-transferase (Escherichia coli K-12, UniProt P0A6W3).
T1 sequence (P0A6W3 whole entry): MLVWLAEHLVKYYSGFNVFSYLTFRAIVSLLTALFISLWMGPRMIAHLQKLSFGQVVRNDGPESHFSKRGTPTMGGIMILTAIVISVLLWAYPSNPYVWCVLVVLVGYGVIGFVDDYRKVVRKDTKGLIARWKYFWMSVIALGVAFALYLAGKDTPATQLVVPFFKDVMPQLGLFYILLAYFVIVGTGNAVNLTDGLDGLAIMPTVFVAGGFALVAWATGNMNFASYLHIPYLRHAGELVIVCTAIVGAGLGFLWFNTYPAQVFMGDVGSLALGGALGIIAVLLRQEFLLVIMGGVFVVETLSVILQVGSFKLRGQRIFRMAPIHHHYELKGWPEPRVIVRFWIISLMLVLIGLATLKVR
Nature of the experiment: Inhibitory concentration required against Translocase I.

For experiment [2], the system named is Mycolicibacterium smegmatis. Kind of experiment: Antimycobacterial activity was determined against Mycobacterium smegmatis SANK75075. It counts as functional.
For a further experiment, the system named is Mycobacterium avium. Kind of experiment: Antimycobacterial activity against Mycobacterium avium NIHJ1605. The experiment is classed as functional.
The next experiment deals with Mycobacterium kansasii. Kind of experiment: Antimycobacterial activity against Mycobacterium kansasii ATCC 12478. It counts as functional.
Experiment [3] concerns Mycobacterium intracellulare. Kind of experiment: Antimycobacterial activity against Mycobacterium intracellular ATCC 1954 E-3. The experiment is classed as functional.
The target of experiment [4] is T1, Phospho-N-acetylmuramoyl-pentapeptide-transferase. Kind of experiment: Inhibitory concentration against translocase-I.

Each structure is given as a SMILES string. ≈ marks a conversion by molar mass, not a printed value.

As to `CCCCCCCCCCCCCCC(=O)O[C@@H]1[C@H](OC)[C@@H]([C@@H](O[C@H]2OC(C(=O)N[C@H]3CCC[C@@H](C)NC3=O)=C[C@H](O)[C@@H]2O)C(N)=O)O[C@H]1n1ccc(=O)[nH]c1=O`, in experiment [1], the IC50 was 2970 nM. For the same compound, the minimum inhibitory concentration (MIC) in experiment [2] turned out to be 6.25 µg/mL (≈ 7.74 µM); with Mycobacterium avium, 0.125 µg/mL (≈ 0.155 µM); against Mycobacterium kansasii, 4 µg/mL (≈ 4.95 µM); in experiment [3] it was 0.25 µg/mL (≈ 0.309 µM).
For `CCCCCCCCCC(=O)O[C@@H]1[C@H](OC)[C@@H]([C@@H](O[C@H]2OC(C(=O)N[C@H]3CCCCNC3=O)=C[C@H](O)[C@@H]2O)C(N)=O)O[C@H]1n1ccc(=O)[nH]c1=O`, the MIC in experiment [2] amounted to 12.5 µg/mL (≈ 17.3 µM); in the experiment on Mycobacterium avium, 0.5 µg/mL (≈ 0.691 µM); against Mycobacterium kansasii it was 1 µg/mL (≈ 1.38 µM); in experiment [3], 0.25 µg/mL (≈ 0.345 µM). Further, in experiment [4], the concentration for half-maximal inhibition (IC50) is 414 nM.
Turning to `CCCCCCC(=O)O[C@@H]1[C@H](OC)[C@@H]([C@@H](O[C@H]2OC(C(=O)N[C@H]3CCCCNC3=O)=C[C@H](O)[C@@H]2O)C(N)=O)O[C@H]1n1ccc(=O)[nH]c1=O`, 25 µg/mL (≈ 36.7 µM) was the least that counted as inhibitory in experiment [2] (MIC). Moreover, the concentration for half-maximal inhibition (IC50) in experiment [4] was 58.7 nM.
On the same counts, the results for `CCCCCCCCC(=O)O[C@@H]1[C@H](OC)[C@@H]([C@@H](O[C@H]2OC(C(=O)N[C@H]3CCCCNC3=O)=C[C@H](O)[C@@H]2O)C(N)=O)O[C@H]1n1ccc(=O)[nH]c1=O` are 12.5 µg/mL (≈ 17.6 µM) and 254 nM.
As to `CO[C@H]1[C@@H](O)[C@H](n2ccc(=O)[nH]c2=O)O[C@@H]1[C@@H](O[C@H]1OC(C(=O)N[C@H]2CCCCNC2=O)=C[C@H](O)[C@@H]1O)C(N)=O` [CAPURAMYCIN], the MIC was 12.5 µg/mL (≈ 21.9 µM) in experiment [2], 8 µg/mL (≈ 14 µM) in the experiment with Mycobacterium avium, 8 µg/mL (≈ 14 µM) in the experiment with Mycobacterium kansasii and 8 µg/mL (≈ 14 µM) in experiment [3]. In experiment [4], the IC50 was 17.6 nM.
